Test results as given in patent publication US9676771B2, “Compounds for inhibiting drug-resistant strains of HIV-1 integrase” (priority 2013, dated 2017).
Read-outs that look alike come from different tables or passages of the source.

What was measured:
[1] = test system: HIV-1 constructs containing mutant IN N155H; experiment: microbe, parasite or virus in culture; format: cell-based; details: Human immunodeficiency virus 1
Source text: (§1) Single-Round HIV-1 Infectivity Assay.
(§2) Human embryonyl kidney cell culture cell line 293 was acquired from the American type Culture Collection (ATCC).
(§3) The virus-containing supernatants were then harvested, clarified by low-speed centrifugation, filtrated, and diluted for preparation in infection assays. […] Activity was normalized to infectivity in the absence of target compounds. KaleidaGraph (Synergy Software, Reading, Pa.) was used to perform regression analysis on the data. EC50 values were determined from the fit model.
(§4) pNLNgoMIVR^−ΔEnv.LUC has been described previously (Zhao et al. 2008). The integrase codon reading frame was removed from pNLNgoMIVR^−ΔEnv LUC (between KpnI and SalI sites) and placed between the KpnI and SalI sites of pBluescript II KS+. Using that construct as the wild-type template, we prepared the following HIV-1 Integrase-resistant mutants via the QuikChange II XL (Stratagene, La Jolla, Calif.) site-directed mutagenesis protocol: H51Y, T66I, E92Q, G118R, Y143R, Q148H, Q148K, N155H, R263K, G140S+Q148H, G140A+Q148K, E138K+Q148K, and H51Y+R263K. The following sense with cognate antisense (not shown) oligonucleotides (Integrated DNA Technologies, Coralville, Iowa) were used in the mutagenesis: H51Y, 5′-[…]-3; T66I, 5′-[…]-3′; E92Q, 5′-[…]-3′; G118R, 5′-[…]-3′; E138K, 5′-[…]-3; G140A, 5′-[…]-3; G140S, 5′-[…]-3′; Y143R, 5′-[…]-3′; Q148H, 5′-[…]-3′; Q148K, 5′-[…]-3; N155H, 5′-[…]-3′; R263K 5′-[…]-3′. The double mutation G140S+Q148H was constructed by using the previously generated Q148H mutant and the appropriate oligonucleotide for the 2nd mutation, G140S. The double mutation G140A+Q148K was made by using the Q148K mutant and the appropriate oligonucleotide for the 2nd mutation, G140A. The double mutation E138K+Q148K was made by using the Q148K mutant and the appropriate oligonucleotide for the 2nd mutation, E138K. The double mutation H51Y+R263K was constructed by using the previously generated H51Y mutant and the appropriate oligonucleotides for the 2nd mutation, R263K. The DNA sequence of each construct was verified independently by DNA sequence determination. […] These DNA sequences were additionally checked independently by DNA sequence determination.

[2] = test system: HIV-1 constructs containing mutant IN Y143R; experiment: microbe, parasite or virus in culture; format: cell-based; details: Human immunodeficiency virus 1
Source text: as §1, §2, §3, §4

[3] = test system: HIV-1 constructs containing mutant IN G140S-Q148H; experiment: microbe, parasite or virus in culture; format: cell-based; details: Human immunodeficiency virus 1
Source text: as §1, §2, §3, §4

[4] = test system: HIV-1 constructs containing mutant IN R263K; experiment: Single-round HIV-1 infectivity assay, IN mutant R263K; format: cell-based; details: Human immunodeficiency virus 1
Procedure: as §1, §2
as §3, with “[…]. […] The” for “The”, “assays. […] After compound incorporation and activation in the cell, 100 μL of virus-stock diluted to achieve a maximum luciferase signal between 0.2 and 1.5 RLUs was added to each well and further incubated at 37° C. for 48 hrs.” for “assays.”
(§5) pNLNgoMIVR^−ΔEnv.LUC has been described previously (Zhao et al. 2008). The integrase codon reading frame was removed from pNLNgoMIVR^−ΔEnv LUC (between KpnI and SalI sites) and placed between the KpnI and SalI sites of pBluescript II KS+. Using that construct as the wild-type template, we prepared the following HIV-1 Integrase-resistant mutants via the QuikChange II XL (Stratagene, La Jolla, Calif.) site-directed mutagenesis protocol: H51Y, T66I, E92Q, G118R, Y143R, Q148H, Q148K, N155H, R263K, G140S+Q148H, G140A+Q148K, E138K+Q148K, and H51Y+R263K. The following sense with cognate antisense (not shown) oligonucleotides (Integrated DNA Technologies, Coralville, Iowa) were used in the mutagenesis: H51Y, 5′-[…]-3; T66I, 5′-[…]-3′; E92Q, 5′-[…]-3′; G118R, 5′-[…]-3′; E138K, 5′-[…]-3; G140A, 5′-[…]-3; G140S, 5′-[…]-3′; Y143R, 5′-[…]-3′; Q148H, 5′-[…]-3′; Q148K, 5′-[…]-3; N155H, 5′-[…]-3′; R263K 5′-[…]-3′. The double mutation G140S+Q148H was constructed by using the previously generated Q148H mutant and the appropriate oligonucleotide for the 2nd mutation, G140S. The double mutation G140A+Q148K was made by using the Q148K mutant and the appropriate oligonucleotide for the 2nd mutation, G140A. The double mutation E138K+Q148K was made by using the Q148K mutant and the appropriate oligonucleotide for the 2nd mutation, E138K. The double mutation H51Y+R263K was constructed by using the previously generated H51Y mutant and the appropriate oligonucleotides for the 2nd mutation, R263K. The DNA sequence of each construct was verified independently by DNA sequence determination. The mutant integrase coding sequences from pBluescript II KS+ were then subcloned into pNLNgoMIVR^−ΔEnv LUC (between the KpnI and SalI sites) to produce the full-length mutant HIV-1 Integrase constructs. These DNA sequences were additionally checked independently by DNA sequence determination.

in vitro = format: cell-based, human; details: human, 50% reduction in the level of ATP in HOS cells
Procedure, shortened: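 Cells exposed to compounds over a concentration range for 48 hrs at 37° C. Viability read as cellular ATP by luciferase (ATPlite) luminescence after lysis, normalised to untreated cells; CC50 derived by regression fit.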

[5] = test system: HIV-1 constructs containing wild-type IN; experiment: microbe, parasite or virus in culture; format: cell-based; details: for EC50: Human immunodeficiency virus 1, WT IN, read-out: EC50 (nM, WT)
[6] = test system: HIV-1 constructs containing mutant IN G118R; experiment: microbe, parasite or virus in culture; format: cell-based; details: Human immunodeficiency virus 1
Procedure: as §1, §2
as §3, with “[…]. […] The” for “The”, “assays. […] After compound incorporation and activation in the cell, 100 μL of virus-stock diluted to achieve a maximum luciferase signal between 0.2 and 1.5 RLUs was added to each well and further incubated at 37° C. for 48 hrs.” for “assays.”
as §5

HIV-1 integrase = HIV-1 integrase (Human immunodeficiency virus type 1 group M subtype B, UniProt P12497); experiment: biochemical; format: biochemical
Procedure, shortened: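 Compounds or DMSO added to 20 nM DNA and 400 nM integrase in 50 mM MOPS pH 7.2, 7.5 mM MgCl2, 14 mM 2-mercaptoethanol; 2 h at 37° C, quenched with formamide/SDS loading buffer. Products resolved on gels, imaged and quantified by densitometry.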

[7] = test system: HIV-1 constructs containing mutant IN E92Q; experiment: Single-round HIV-1 infectivity assay, IN mutant E92Q; format: cell-based; details: Human immunodeficiency virus 1; Table 8; read-out: EC50 (nM, IN mutants) E92Q
Procedure: as §1, §2
as §3, with “[…]. […] The” for “The”, “assays. […] After compound incorporation and activation in the cell, 100 μL of virus-stock diluted to achieve a maximum luciferase signal between 0.2 and 1.5 RLUs was added to each well and further incubated at 37° C. for 48 hrs.” for “assays.”
as §5

[8] = Table 8, read-out: EC50 (nM, IN mutants) N155H
[9] = Table 8, read-out: EC50 (nM, IN mutants) Y143R
[10] = Table 8, read-out: EC50 (nM, IN mutants) G140S/Q148H
[11] = Table 7, 3′-processing, read-out: IC50 (μM) 3′-P
[12] = Table 7, strand transfer, read-out: IC50 (μM) ST
[13] = Table 10, strand transfer, read-out: IC50 (nM, ST)

O=C(NCc1ccc(F)cc1F)c1c(NCCO)c2cccnc2n(O)c1=O [XZ378, N-(2,4-difluorobenzyl)-1-hydroxy-4-((2-hydroxyethyl)amino)-2-oxo-1,2-dihydro-1,8-naphthyridine-3-carboxamide]
EC50 ([1]; Table 3, read-out: EC50 (nM, IN Mutants) N155H): 24.6 ± 3.8 nM | EC50 ([2]; Table 3, read-out: EC50 (nM, IN Mutants) Y143R): 4.6 ± 1.8 nM | EC50 ([3]; Table 3, G140S-Q148H double mutant, read-out: EC50 (nM, IN Mutants) SH): 43.1 ± 15.3 nM | EC50 ([4]; Table 6, read-out: EC50 (nM, IN Mutants) R263K): 26 nM | CC50 (in vitro; Table 3): 23500 ± 3000 nM | CC50 (in vitro; Table 6): 23500 ± 3000 nM | EC50 ([5]; Table 3): 5.2 ± 0.6 nM | Si (selectivity index) ([5]; Table 3, ratio of CC50 to EC50): 4,519 | EC50 ([6]; Table 6, read-out: EC50 (nM, IN Mutants) G118R): 27.3 ± 1.4 nM | IC50 (HIV-1 integrase; Table 4, 3′-processing, read-out: IC50 (3^+-Processing)): 550 ± 70 nM | IC50 (HIV-1 integrase; Table 4, strand transfer, read-out: IC50 (Strand Transfer)): 10 ± 9 nM

Nc1c(C(=O)NCc2ccc(F)cc2F)c(=O)n(O)c2ncc(CCCCc3ccccc3)cc12 [XZ429, 4-Amino-N-(2,4-difluorobenzyl)-1-hydroxy-2-oxo-6-(4-phenylbutyl)-1,2-dihydro-1,8-naphthyridine-3-carboxamide]
EC50 [1, 8]: 38.8 nM | EC50 [2, 9]: 4.7 nM | EC50 [3, 10]: 128 nM | CC50 (in vitro; Table 8): 12800 nM | EC50 ([5]; Table 8): 10.6 nM | IC50 (HIV-1 integrase; [11]): 42000 ± 4000 nM | IC50 (HIV-1 integrase; [12]): 1980 ± 422 nM

Nc1c(C(=O)NCc2ccc(F)cc2F)c(=O)n(O)c2ncc(CCc3ccccc3)cc12 [XZ430, 4-Amino-N-(2,4-difluorobenzyl)-1-hydroxy-2-oxo-6-phenethyl-1,2-dihydro-1,8-naphthyridine-3-carboxamide]
EC50 [1, 8]: 21.1 nM | EC50 [2, 9]: 5.5 nM | EC50 [3, 10]: 140 nM | CC50 (in vitro; Table 8): 17600 nM | EC50 ([5]; Table 8): 5.6 nM | IC50 (HIV-1 integrase; [11]): 48000 ± 4000 nM | IC50 (HIV-1 integrase; [12]): 14.5 ± 3.4 nM

COC(=O)CNc1c(C(=O)NCc2ccc(F)cc2F)c(=O)n(O)c2ncc(CCCCCO)cc12 [XZ431, Methyl 2-((3-((2,4-difluorobenzyl)carbamoyl)-1-hydroxy-6-(5-hydroxypentyl)-2-oxo-1,2-dihydro-1,8-naphthyridin-4-yl)amino)acetate]
EC50 [1, 8]: 11.1 nM | EC50 [2, 9]: 3.5 nM | EC50 [3, 10]: 41.6 nM | CC50 (in vitro; Table 8): > 250000 nM | EC50 ([5]; Table 8): 3.3 nM | IC50 (HIV-1 integrase; [11]): 2100 ± 500 nM | IC50 (HIV-1 integrase; [12]): 3.7 ± 0.7 nM

Nc1c(C(=O)NCc2ccc(F)cc2F)c(=O)n(O)c2ncc(CCCOCCO)cc12 [XZ432, 4-Amino-N-(2,4-difluorobenzyl)-1-hydroxy-6-(3-(2-hydroxyethoxy)propyl)-2-oxo-1,2-dihydro-1,8-naphthyridine-3-carboxamide]
EC50 [1, 8]: 4.2 nM | EC50 [2, 9]: 1.2 nM | EC50 [3, 10]: 35.3 nM | CC50 (in vitro; Table 8): > 250000 nM | EC50 ([5]; Table 8): 1.6 nM | IC50 (HIV-1 integrase; [11]): 1500 ± 400 nM | IC50 (HIV-1 integrase; [12]): 2.5 ± 0.4 nM

Nc1c(C(=O)NCc2ccc(F)cc2F)c(=O)n(O)c2ncc(CCC(=O)O)cc12 [XZ444, 3-(5-Amino-6-((2,4-difluorobenzyl)carbamoyl)-8-hydroxy-7-oxo-7,8-dihydro-1,8-naphthyridin-3-yl)propanoic acid]
EC50 [1, 8]: 10.3 nM | EC50 [2, 9]: 4.9 nM | EC50 [3, 10]: 195 nM | CC50 (in vitro; Table 8): > 250000 nM | EC50 ([5]; Table 8): 1.9 nM | IC50 (HIV-1 integrase; [13]): 3.9 ± 1.3 nM

CS(=O)(=O)CCc1cnc2c(c1)c(N)c(C(=O)NCc1ccc(F)cc1F)c(=O)n2O [XZ445, 4-Amino-N-(2,4-difluorobenzyl)-1-hydroxy-6-(2-(methylsulfonyl)ethyl)-2-oxo-1,2-dihydro-1,8-naphthyridine-3-carboxamide]
EC50 [1, 8]: 32.8 nM | EC50 [2, 9]: 27.5 nM | EC50 [3, 10]: 118 nM | CC50 (in vitro; Table 8): 95400 nM | EC50 ([5]; Table 8): 27 nM | IC50 (HIV-1 integrase; [13]): ~0.07 nM

Nc1c(C(=O)NCc2ccc(F)cc2F)c(=O)n(O)c2ncc(CCS(=O)(=O)c3ccccc3)cc12 [XZ446, 4-Amino-N-(2,4-difluorobenzyl)-1-hydroxy-2-oxo-6-(2-(phenylsulfonyl)ethyl)-1,2-dihydro-1,8-naphthyridine-3-carboxamide]
EC50 [1, 8]: 2.1 nM | EC50 [2, 9]: 0.6 nM | EC50 [3, 10]: 5.2 nM | EC50 ([4]; Table 8, read-out: EC50 (nM, IN mutants) R263K): 5.3 nM | CC50 (in vitro; Table 8): > 250000 nM | EC50 ([5]; Table 8): 2 ± 0.1 nM | EC50 ([6]; Table 8, read-out: EC50 (nM, IN mutants) G118R): 11.4 nM | EC50 [7]: 1.2 nM | IC50 (HIV-1 integrase; [13]): 3.7 ± 1.3 nM

Nc1c(C(=O)NCc2ccc(F)cc2F)c(=O)n(O)c2ncc(CCS(=O)(=O)CCN3CCOCC3)cc12 [XZ447, 4-Amino-N-(2,4-difluorobenzyl)-1-hydroxy-6-(2-((2-morpholinoethyl)sulfonyl)ethyl)-2-oxo-1,2-dihydro-1,8-naphthyridine-3-carboxamide]
EC50 [1, 8]: 140 nM | EC50 [2, 9]: 109 nM | EC50 [3, 10]: 412 nM | CC50 (in vitro; Table 8): > 250000 nM | EC50 ([5]; Table 8): 268 nM | IC50 (HIV-1 integrase; [13]): 2.5 ± 1.3 nM
